Results: PubChem BioAssay AID196 (DTP/NCI, 2004)
Where “and” joins values, the source holds several entries; their conditions need not be identical. Equal values may be shown once. Inconclusive results and toxic doses are left out.

Test system: BDF1 mice, intracerebral B16 melanoma, median survival T/C
Assay: NCI In Vivo Anticancer Drug Screen. Data for tumor model B16 Melanoma (intracerebral) in B6D2F1 (BDF1) mice
Conditions: endpoint: median survival time, higher = longer survival
Description: The antitumor activity of compounds was measured in mice bearing transplantable tumors. Survival or tumor size were measured and the results are expressed as the measurement made in the treated group (T) divided by the measurement made in the vehicle treated control group (C). The tumor model used in this assay is B16 Melanoma (intracerebral) in B6D2F1 (BDF1) mice

[1] = dose: 40.0 mg/kg/injection, schedule: Q01DX001 (ip), vehicle: Klucel (hydroxypropylcellulose) (HPC)
[2] = dose: 60.0 mg/kg/injection, schedule: Q01DX001 (ip), vehicle: Klucel (hydroxypropylcellulose) (HPC)
[3] = dose: 2.0 mg/kg/injection, schedule: Q01DX009 (ip), vehicle: water
[4] = dose: 32.0 mg/kg/injection, schedule: Q01DX005 (ip), vehicle: saline with Tween-80

NC(=S)N/N=C/c1ccc(O)cn1
T/C (dose: 12.0 mg/kg/injection, schedule: Q01DX005 (ip), vehicle: saline): 96 % of control | T/C (dose: 12.0 mg/kg/injection, schedule: Q01DX005 (ip), vehicle: suspension in saline): 103 % of control | T/C (dose: 24.0 mg/kg/injection, schedule: Q01DX005 (ip), vehicle: saline): 93 % of control | T/C (dose: 24.0 mg/kg/injection, schedule: Q01DX005 (ip), vehicle: suspension in saline): 96 % of control | T/C (dose: 48.0 mg/kg/injection, schedule: Q01DX005 (ip), vehicle: saline): 100 % of control | T/C (dose: 48.0 mg/kg/injection, schedule: Q01DX005 (ip), vehicle: suspension in saline): 91 % of control | T/C (dose: 96.0 mg/kg/injection, schedule: Q01DX005 (ip), vehicle: saline): 97 % of control | T/C (dose: 96.0 mg/kg/injection, schedule: Q01DX005 (ip), vehicle: suspension in saline): 108 % of control

O=NN(CCF)C(=O)N[C@H]1CCCC[C@H]1O
T/C (dose: 26.7 mg/kg/injection, schedule: Q01DX001 (ip), vehicle: Klucel (hydroxypropylcellulose) (HPC)): 151 % of control | T/C [1]: 155 % of control | T/C [2]: 330 % of control

Nc1n[nH]c(N)n1
T/C (dose: 128.0 mg/kg/injection, schedule: Q01DX005 (ip), vehicle: saline): 95 % of control and 111 % of control | T/C (dose: 256.0 mg/kg/injection, schedule: Q01DX005 (ip), vehicle: saline): 97 % of control and 106 % of control | T/C (dose: 512.0 mg/kg/injection, schedule: Q01DX005 (ip), vehicle: saline): 116 % of control and 103 % of control | T/C (dose: 1024.0 mg/kg/injection, schedule: Q01DX005 (ip), vehicle: saline): 118 % of control and 93 % of control

Cc1[nH]c(=O)[nH]c(=O)c1N(CCF)CCCl
T/C [3]: 107 % of control | T/C (dose: 4.0 mg/kg/injection, schedule: Q01DX009 (ip), vehicle: water): 104 % of control | T/C (dose: 8.0 mg/kg/injection, schedule: Q01DX009 (ip), vehicle: water): 112 % of control | T/C (dose: 16.0 mg/kg/injection, schedule: Q01DX009 (ip), vehicle: water): 104 % of control | T/C (dose: 32.0 mg/kg/injection, schedule: Q01DX009 (ip), vehicle: water): 102 % of control

O=NN(CCF)C(=O)NC1C(O)CCCC1O (stereo not drawn)
T/C (dose: 13.0 mg/kg/injection, schedule: Q01DX001 (ip), vehicle: saline): 115 % of control | T/C (dose: 17.8 mg/kg/injection, schedule: Q01DX001 (ip), vehicle: Klucel (hydroxypropylcellulose) (HPC)): 120 % of control | T/C (dose: 21.6 mg/kg/injection, schedule: Q01DX001 (ip), vehicle: saline): 111 % of control | T/C [1]: 160 % of control | T/C [2]: 171 % of control | T/C (dose: 60.0 mg/kg/injection, schedule: Q01DX001 (ip), vehicle: saline): 189 % of control

S=c1nc[nH]c2nc[nH]c12
T/C (dose: 11.3 mg/kg/injection, schedule: Q01DX009 (ip), vehicle: other): 91 % of control | T/C (dose: 22.5 mg/kg/injection, schedule: Q01DX009 (ip), vehicle: other): 100 % of control | T/C (dose: 45.0 mg/kg/injection, schedule: Q01DX009 (ip), vehicle: other): 100 % of control

O=C1C=CN(C2OC(CO)C(O)C2O)C(=O)C1 (stereo not drawn)
T/C (dose: 12.5 mg/kg/injection, schedule: Q01DX009 (ip), vehicle: saline): 90 % of control | T/C (dose: 25.0 mg/kg/injection, schedule: Q01DX009 (ip), vehicle: saline): 97 % of control | T/C (dose: 50.0 mg/kg/injection, schedule: Q01DX009 (ip), vehicle: saline): 97 % of control | T/C (dose: 100.0 mg/kg/injection, schedule: Q01DX009 (ip), vehicle: saline): 100 % of control | T/C (dose: 200.0 mg/kg/injection, schedule: Q01DX009 (ip), vehicle: saline): 111 % of control | T/C (dose: 400.0 mg/kg/injection, schedule: Q01DX009 (ip), vehicle: saline): 107 % of control

CN=S(=O)(OCCCCCOS(=O)(=NC)c1ccccc1)c1ccccc1 (stereo not drawn)
T/C (dose: 6.25 mg/kg/injection, schedule: Q01DX009 (ip), vehicle: saline with Tween-80): 109 % of control | T/C (dose: 12.5 mg/kg/injection, schedule: Q01DX009 (ip), vehicle: saline with Tween-80): 91 % of control | T/C (dose: 25.0 mg/kg/injection, schedule: Q01DX009 (ip), vehicle: saline with Tween-80): 100 % of control

O=C1C(NCCO)=C(N2CC2)C(=O)C(NCCO)=C1N1CC1
T/C (dose: 0.09 mg/kg/injection, schedule: Q01DX009 (ip), vehicle: saline): 97 % of control | T/C (dose: 0.19 mg/kg/injection, schedule: Q01DX009 (ip), vehicle: saline): 103 % of control | T/C (dose: 0.38 mg/kg/injection, schedule: Q01DX009 (ip), vehicle: saline): 109 % of control | T/C (dose: 0.75 mg/kg/injection, schedule: Q01DX009 (ip), vehicle: saline): 100 % of control

N[C@@H](Cc1ccc(N(CCCl)CCCl)cc1)C(=O)O
T/C (dose: 0.5 mg/kg/injection, schedule: Q01DX009 (ip), vehicle: saline): 95 % of control | T/C (dose: 0.5 mg/kg/injection, schedule: Q01DX009 (ip), vehicle: water): 100 % of control | T/C (dose: 1.0 mg/kg/injection, schedule: Q01DX009 (ip), vehicle: saline): 100 % of control | T/C (dose: 1.0 mg/kg/injection, schedule: Q01DX009 (ip), vehicle: water): 104 % of control | T/C (dose: 2.0 mg/kg/injection, schedule: Q01DX009 (ip), vehicle: saline): 120 % of control | T/C [3]: 116 % of control | T/C (dose: 4.0 mg/kg/injection, schedule: Q01DX009 (ip), vehicle: saline): 87 % of control

CCC(C)N(C)/N=N/c1nc[nH]c1C(N)=O (stereo not drawn)
T/C (dose: 16.0 mg/kg/injection, schedule: Q01DX005 (ip), vehicle: saline with Tween-80): 102 % of control | T/C [4]: 106 % of control | T/C (dose: 64.0 mg/kg/injection, schedule: Q01DX005 (ip), vehicle: saline with Tween-80): 112 % of control | T/C (dose: 128.0 mg/kg/injection, schedule: Q01DX005 (ip), vehicle: saline with Tween-80): 107 % of control

C[n+]1c2ccccc2nc2c(N)cc(N)cc21
T/C (dose: 4.0 mg/kg/injection, schedule: Q01DX005 (ip), vehicle: suspension in saline): 93 % of control | T/C (dose: 8.0 mg/kg/injection, schedule: Q01DX005 (ip), vehicle: suspension in saline): 92 % of control and 98 % of control | T/C (dose: 16.0 mg/kg/injection, schedule: Q01DX005 (ip), vehicle: suspension in saline): 100 % of control and 103 % of control | T/C (dose: 32.0 mg/kg/injection, schedule: Q01DX005 (ip), vehicle: suspension in saline): 93 % of control and 97 % of control

COc1cc(NS(C)(=O)=O)ccc1Nc1c2cccc(C)c2nc2c(C)cccc12
T/C (dose: 25.0 mg/kg/injection, schedule: Q04DX003 (ip), vehicle: Klucel (hydroxypropylcellulose) (HPC)): 97 % of control | T/C (dose: 25.0 mg/kg/injection, schedule: Q04DX003 (ip), vehicle: saline): 104 % of control | T/C (dose: 50.0 mg/kg/injection, schedule: Q04DX003 (ip), vehicle: Klucel (hydroxypropylcellulose) (HPC)): 94 % of control | T/C (dose: 50.0 mg/kg/injection, schedule: Q04DX003 (ip), vehicle: saline): 116 % of control | T/C (dose: 100.0 mg/kg/injection, schedule: Q04DX003 (ip), vehicle: saline): 95 % of control | T/C (dose: 200.0 mg/kg/injection, schedule: Q04DX003 (ip), vehicle: saline): 104 % of control

COc1cc(NS(C)(=O)=O)ccc1Nc1c2ccccc2nc2c(C)cccc12
T/C (dose: 5.0 mg/kg/injection, schedule: Q04DX003 (ip), vehicle: Klucel (hydroxypropylcellulose) (HPC)): 88 % of control | T/C (dose: 5.0 mg/kg/injection, schedule: Q04DX003 (ip), vehicle: saline): 108 % of control | T/C (dose: 10.0 mg/kg/injection, schedule: Q04DX003 (ip), vehicle: Klucel (hydroxypropylcellulose) (HPC)): 91 % of control | T/C (dose: 10.0 mg/kg/injection, schedule: Q04DX003 (ip), vehicle: saline): 100 % of control | T/C (dose: 20.0 mg/kg/injection, schedule: Q04DX003 (ip), vehicle: saline): 116 % of control

F
T/C (dose: 16.0 mg/kg/injection, schedule: Q01DX005 (ip), vehicle: saline): 102 % of control | T/C (dose: 32.0 mg/kg/injection, schedule: Q01DX005 (ip), vehicle: saline): 100 % of control

CCCCCN(C)/N=N/c1nc[nH]c1C(N)=O
T/C [4]: 120 % of control

CN(CO)c1nc(N(C)CO)nc(N(C)CO)n1
T/C (dose: 50.0 mg/kg/injection, schedule: Q01DX009 (ip), vehicle: Klucel (hydroxypropylcellulose) (HPC)): 100 % of control and 104 % of control | T/C (dose: 100.0 mg/kg/injection, schedule: Q01DX009 (ip), vehicle: Klucel (hydroxypropylcellulose) (HPC)): 120 % of control and 106 % of control
